How the values were obtained:
memapsin 2 = memapsin 2 (Homo sapiens, UniProt P56817); assay: Inhibition of memapsin 2 beta-secretase activity toward fluorogenic substrate FS-2; assay type: biochemical; settings: memapsin 2, pH 4, 37° C., 20 minutes pre-incubation, substrate FS-2; read-out: M2Ki
Description: Potency of compounds were determined by measurement of their inhibition of memapsin 2 activity toward a fluorescent substrate. Kinetic inhibition experiments were performed using the procedure as described in Ermolieff, et al. (Biochemistry 39:12450-12456 (2000), the teachings of which are incorporated hereby in their entirety). Briefly, assays were performed at pH 4, 37° C., by pre-incubation of memapsin 2 enzyme with compound for 20 minutes. Activity measurements were initiated by addition of a fluorogenic substrate FS-2 (Bachem Americas, Torrance, Calif.) MCA-SEVNLDAEFK-DNP (SEQ ID NO.: 2). The substrate was derived from 10 amino acids of the human amyloid precursor protein (APP), with the Swedish variant amino acids at the beta-secretase cleavage site. The terminal amino acid was modified from arginine to lysine to facilitate derivatization with a functional group for detection by autofluorescence. The amino acid sequence of the “core” peptide of the substrate is SEVNLDAEFK (SEQ ID NO.: 3). The amino terminus was derivatized with (7-methoxycoumarin-4-yl)acetyl (MCA), and the epsilon amine of the lysine side chain of the terminal residue (K in sequence SEVNLDAEFK (SEQ ID NO.: 4)) was derivatized with 2,4-dinitrophenyl (DNP).

[1] = system: Aβ production in Chinese hamster ovary cells that over-express human APP695 with the London and Swedish mutations; assay: Cellular Aβ IC50 determination (Aβ40 sandwich ELISA); assay type: cell-based; settings: Cricetulus griseus; Aβ40 in CHO cells over-expressing human APP695, 24 h incubation
Description: The potency of compounds against memapsin 2 activity was determined in a cellular assay of Aβ production. […] Chinese hamster ovary cells that over-express human APP695 with the London and Swedish mutations were seeded in multi-well plates at 10% confluency. Compounds are dissolved in DMSO to concentrations near 1 mM, and diluted into culture media to a final concentration near 4 μM (final 0.4% DMSO). Compounds were diluted serially and applied to cells in multi-well plates 48 h after seeding. Incubation was continued in 5% CO2 at 37° C. for 24 h. Aliquots were removed and assayed for Aβ40 content using a sandwich ELISA (BioSource International). Amount of Aβ40 over the range of concentration of compounds, relative to control incubations, were fit to a 4-parameter IC50 model.

Chain of memapsin 2 (P56817 46-501): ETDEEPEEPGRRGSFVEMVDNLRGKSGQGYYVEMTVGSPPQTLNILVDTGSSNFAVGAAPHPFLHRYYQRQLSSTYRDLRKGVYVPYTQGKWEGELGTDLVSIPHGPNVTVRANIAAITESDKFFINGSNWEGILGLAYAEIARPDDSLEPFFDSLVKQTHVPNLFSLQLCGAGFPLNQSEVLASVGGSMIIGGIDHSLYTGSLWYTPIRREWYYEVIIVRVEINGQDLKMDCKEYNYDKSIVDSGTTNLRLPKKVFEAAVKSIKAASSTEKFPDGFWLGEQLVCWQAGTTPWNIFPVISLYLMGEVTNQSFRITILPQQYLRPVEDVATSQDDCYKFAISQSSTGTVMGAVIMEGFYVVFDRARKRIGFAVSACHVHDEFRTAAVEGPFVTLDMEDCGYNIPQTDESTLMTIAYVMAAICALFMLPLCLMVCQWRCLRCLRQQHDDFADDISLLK

Structure (SMILES) | Ki (memapsin 2) | IC50 [1]
COC[C@H]1CCCN1C(=O)c1cc(C)cc(C(=O)N[C@@H](Cc2ccccc2)[C@H](O)CNCc2cccc(OC)c2)c1 [Compound 3, N-((2S,3R)-3-hydroxy-4-(3-methoxybenzylamino)-1-phenylbutan-2-yl)-3-((R)-2-(methoxymethyl)pyrrolidine-1-carbonyl)-5-methylbenzamide] | < 0.1 µM | < 0.3 µM
COc1cccc(CNC[C@@H](O)[C@H](Cc2ccccc2)NC(=O)c2cccc(C(=O)N3CCCC[C@@H]3c3nc(C)cs3)c2)c1 [Compound 5, N-((2S,3R)-3-hydroxy-4-(3-methoxybenzylamino)-1-phenylbutan-2-yl)-3-((R)-2-(4-methylthiazol-2-yl)piperidine-1-carbonyl)benzamide] | < 0.1 µM | > 0.501 µM
COc1cccc(CNC[C@@H](O)[C@H](Cc2ccccc2)NC(=O)c2cccc(C(=O)N3CSC[C@@H]3c3nc(C)cs3)c2)c1 [Compound 8, N-((2S,3R)-3-hydroxy-4-(3-methoxybenzylamino)-1-phenylbutan-2-yl)-3-((R)-4-(4-methylthiazol-2-yl)thiazolidine-3-carbonyl)benzamide] | < 0.1 µM | < 0.3 µM
COc1cccc(CNC[C@@H](O)[C@H](Cc2ccccc2)NC(=O)c2cc(OC)cc(C(=O)N3CCC[C@@H]3c3nc(C)cs3)c2)c1 [Compound 11, N-((2S,3R)-3-hydroxy-4-(3-methoxybenzylamino)-1-phenylbutan-2-yl)-3-methoxy-5-((R)-2-(4-methylthiazol-2-yl)pyrrolidine-1-carbonyl)benzamide] | < 0.1 µM | < 0.3 µM
COc1cc(C(=O)N[C@@H](Cc2ccccc2)[C@H](O)CNCc2cccc(C(C)(C)C)c2)cc(C(=O)N2CCC[C@@H]2c2nc(C)cs2)c1 [Compound 16, N-((2S,3R)-4-(3-tert-butylbenzylamino)-3-hydroxy-1-phenylbutan-2-yl)-3-methoxy-5-((R)-2-(4-methylthiazol-2-yl)pyrrolidine-1-carbonyl)benzamide] | < 0.1 µM | < 0.3 µM
Cc1csc([C@H]2CCCN2C(=O)c2cccc(C(=O)N[C@@H](Cc3ccccc3)[C@H](O)CNCc3cccc(Cl)c3)c2)n1 [Compound 17, N-((2S,3R)-4-(3-chlorobenzylamino)-3-hydroxy-1-phenylbutan-2-yl)-3-((R)-2-(4-methylthiazol-2-yl)pyrrolidine-1-carbonyl)benzamide] | < 0.1 µM | < 0.3 µM
COc1cc(C(=O)N[C@@H](Cc2ccccc2)[C@H](O)CNCc2cccc(Cl)c2)cc(C(=O)N2CCC[C@@H]2c2nc(C)cs2)c1 [Compound 18, N-((2S,3R)-4-(3-chlorobenzylamino)-3-hydroxy-1-phenylbutan-2-yl)-3-methoxy-5-((R)-2-(4-methylthiazol-2-yl)pyrrolidine-1-carbonyl)benzamide] | < 0.1 µM | < 0.3 µM
Cc1csc([C@H]2CCCN2C(=O)c2cccc(C(=O)N[C@@H](Cc3ccccc3)[C@H](O)CNCc3cc(C(C)C)on3)c2)n1 [Compound 106, N-((2S,3R)-3-hydroxy-4-((5-isopropylisoxazol-3-yl)methylamino)-1-phenylbutan-2-yl)-3-((R)-2-(4-methylthiazol-2-yl)pyrrolidine-1-carbonyl)benzamide] | < 0.1 µM | –
Cc1coc([C@H]2CCCN2C(=O)c2cccc(C(=O)N[C@@H](Cc3ccccc3)[C@H](O)CNC3CCCCC3)c2)n1 [Compound 107, N-((2S,3R)-4-(cyclohexylamino)-3-hydroxy-1-phenylbutan-2-yl)-3-((R)-2-(4-methyloxazol-2-yl)pyrrolidine-1-carbonyl)benzamide] | > 0.201 µM | –
CCn1cc(CNC[C@@H](O)[C@H](Cc2ccccc2)NC(=O)c2cccc(C(=O)N3CCC[C@@H]3c3nc(C)co3)c2)cn1 [Compound 109, N-((2S,3R)-4-((1-ethyl-1H-pyrazol-4-yl)methylamino)-3-hydroxy-1-phenylbutan-2-yl)-3-((R)-2-(4-methyloxazol-2-yl)pyrrolidine-1-carbonyl)benzamide] | 0.101 to 0.2 µM | –
Cc1coc([C@H]2CCCN2C(=O)c2cccc(C(=O)N[C@@H](Cc3ccccc3)[C@H](O)CNCc3cccc(OC(F)(F)F)c3)c2)n1 [Compound 114, N-((2S,3R)-3-hydroxy-1-phenyl-4-(3-(trifluoromethoxy)benzylamino)butan-2-yl)-3-((R)-2-(4-methyloxazol-2-yl)pyrrolidine-1-carbonyl)benzamide] | < 0.1 µM | –
Cc1cc(C(=O)N[C@@H](Cc2ccccc2)[C@H](O)CNCc2cccc(OC(F)(F)F)c2)cc(C(=O)N2CCC[C@@H]2c2nc(C)co2)c1 [Compound 115, N-((2S,3R)-3-hydroxy-1-phenyl-4-(3-(trifluoromethoxy)benzylamino)butan-2-yl)-3-methyl-5-((R)-2-(4-methyloxazol-2-yl)pyrrolidine-1-carbonyl)benzamide] | < 0.1 µM | –

Next, values leading:

Ki (memapsin 2) | IC50 [1] | Structure (SMILES)
< 0.1 µM | – | C=C(C)c1cccc(CNC[C@@H](O)[C@H](Cc2ccccc2)NC(=O)c2cc(C)cc(C(=O)N3CCC[C@@H]3c3nc(C)co3)c2)c1 [Compound 108, N-((2S,3R)-3-hydroxy-1-phenyl-4-(3-(prop-1-en-2-yl)benzylamino)butan-2-yl)-3-methyl-5-((R)-2-(4-methyloxazol-2-yl)pyrrolidine-1-carbonyl)benzamide]
< 0.1 µM | – | CCn1cc(CNC[C@@H](O)[C@H](Cc2ccccc2)NC(=O)c2cc(C)cc(C(=O)N3CCC[C@@H]3c3nc(C)co3)c2)cn1 [Compound 110, N-((2S,3R)-4-((1-ethyl-1H-pyrazol-4-yl)methylamino)-3-hydroxy-1-phenylbutan-2-yl)-3-methyl-5-((R)-2-(4-methyloxazol-2-yl)pyrrolidine-1-carbonyl)benzamide]
< 0.1 µM | – | Cc1coc([C@H]2CCCN2C(=O)c2cccc(C(=O)N[C@@H](Cc3ccccc3)[C@H](O)CNCc3cncc(C(C)(C)C)c3)c2)n1 [Compound 111, N-((2S,3R)-4-((5-tert-butylpyridin-3-yl)methylamino)-3-hydroxy-1-phenylbutan-2-yl)-3-((R)-2-(4-methyloxazol-2-yl)pyrrolidine-1-carbonyl)benzamide]
< 0.1 µM | – | Cc1cc(C(=O)N[C@@H](Cc2ccccc2)[C@H](O)CNCc2cncc(C(C)(C)C)c2)cc(C(=O)N2CCC[C@@H]2c2nc(C)co2)c1 [Compound 112, N-((2S,3R)-4-((5-tert-butylpyridin-3-yl)methylamino)-3-hydroxy-1-phenylbutan-2-yl)-3-methyl-5-((R)-2-(4-methyloxazol-2-yl)pyrrolidine-1-carbonyl)benzamide]
< 0.1 µM | – | Cc1cc(C(=O)N[C@@H](Cc2ccccc2)[C@H](O)CNCc2cncc(C(C)(F)F)c2)cc(C(=O)N2CCC[C@@H]2c2nc(C)co2)c1 [Compound 113, N-((2S,3R)-4-((5-(1,1-difluoroethyl)pyridin-3-yl)methylamino)-3-hydroxy-1-phenylbutan-2-yl)-3-methyl-5-((R)-2-(4-methyloxazol-2-yl)pyrrolidine-1-carbonyl)benzamide]
< 0.1 µM | – | Cc1cc(C(=O)N[C@@H](Cc2ccccc2)[C@H](O)CNCc2cncc(C(C)(F)F)c2)cc(C(=O)N2CCC[C@@H]2c2nc(C)cs2)c1 [Compound 116, N-((2S,3R)-4-((5-(1,1-difluoroethyl)pyridin-3-yl)methylamino)-3-hydroxy-1-phenylbutan-2-yl)-3-methyl-5-((R)-2-(4-methylthiazol-2-yl)pyrrolidine-1-carbonyl)benzamide]

From patent US8299267B2, “(3-hydroxy-4-amino-butan-2-yl) -3- (2-thiazol-2-yl-pyrrolidine-1-carbonyl) benzamide derivatives and related compounds as beta-secretase inhibitors for treating” (CoMentis, Inc., priority 2007, dated 2012)
